Data on four compounds can be found in US20080269202A1, “Novel 2,3-benzodiazepine derivatives and their use as antipsychotic agents” (Teva Pharmaceutical Industries Ltd., priority 2007, published 2008).

Where two headings read alike, the source gives them in different places.

Assay [1] has as its target central dopaminergic receptors (Homo sapiens, UniProt P21728). Description: in vitro binding profile to central dopaminergic receptors (Table 3). The settings on record: human recombinant CHO cells, ligand [3H]SCH-23390; read-out: D1 binding. The source says:
(§1) The new 2,3-benzodiazepine atypical antipsychotic agents of formula (I) of the present invention influence dopaminergic neurotransmission by a unique indirect fashion, differently from both the first and second generation antipsychotics. The in vitro binding profile of these compounds (Table 3) differs from that of the first generation antipsychotics which bind to dopaminergic receptors and second generation antipsychotics, representatives of which show affinity for dopaminergic, serotonergic, or adrenergic receptors.

In assay [2] the target is T1, central dopaminergic receptors (Homo sapiens, UniProt P21917).
T1 sequence (P21917 1-419): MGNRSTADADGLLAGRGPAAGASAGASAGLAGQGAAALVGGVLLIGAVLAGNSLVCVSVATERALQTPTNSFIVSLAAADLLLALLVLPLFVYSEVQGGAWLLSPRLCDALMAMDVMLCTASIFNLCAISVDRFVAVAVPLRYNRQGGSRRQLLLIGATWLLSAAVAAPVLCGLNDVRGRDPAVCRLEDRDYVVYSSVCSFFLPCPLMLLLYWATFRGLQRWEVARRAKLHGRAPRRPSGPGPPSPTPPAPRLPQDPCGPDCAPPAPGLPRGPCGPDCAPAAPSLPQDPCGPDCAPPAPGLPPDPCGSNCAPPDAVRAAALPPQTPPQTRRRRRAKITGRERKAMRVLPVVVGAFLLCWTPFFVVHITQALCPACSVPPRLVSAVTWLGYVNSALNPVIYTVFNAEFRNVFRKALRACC
Described as above. The settings on record: human recombinant CHO-K1 cells, ligand [3H]spiperone; read-out: D4 binding.
Description: as §1

The target of assay [3] is central dopaminergic receptors (Homo sapiens, UniProt P35462). The description is as above. The note with it: human recombinant CHO cells, ligand [3H]spiperone (footnote prints D2); read-out: D3 binding.
Sequence of central dopaminergic receptors (Homo sapiens, UniProt P35462) (P35462 whole entry): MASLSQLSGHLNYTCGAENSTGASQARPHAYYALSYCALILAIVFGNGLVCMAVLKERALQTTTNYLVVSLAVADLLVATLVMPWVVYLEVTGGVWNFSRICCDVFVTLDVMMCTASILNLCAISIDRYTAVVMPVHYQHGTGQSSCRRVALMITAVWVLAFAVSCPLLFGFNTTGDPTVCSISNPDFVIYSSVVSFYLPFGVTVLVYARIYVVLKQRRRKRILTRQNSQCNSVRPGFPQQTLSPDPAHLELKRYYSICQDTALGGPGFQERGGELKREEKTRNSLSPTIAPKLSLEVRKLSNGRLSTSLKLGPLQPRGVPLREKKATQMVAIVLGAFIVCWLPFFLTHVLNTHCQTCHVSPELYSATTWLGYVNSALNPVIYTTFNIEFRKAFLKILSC
Description: as §1

Assay [4] concerns the target central dopaminergic receptors (Rattus norvegicus, UniProt P61169). The description is as above. The note with it: rat striatal membranes, ligand [3H]sulpirid; read-out: D2 binding.
Description: as §1

Assay [5] addresses T2, serotonergic receptors (Rattus norvegicus, UniProt P14842).
T2 construct: other: rat cerebral cortical membranes, ligand [3H]ketanserin
Description: in vitro binding profile to serotonergic receptors (Table 3). The settings on record: rat cerebral cortical membranes, ligand [3H]ketanserin; read-out: 5HT2A binding.
Description: as §1

In assay [6] the target is T3, serotonergic receptors (Rattus norvegicus, UniProt P19327).
T3 construct: other: rat hippocampal membranes, ligand [3H]-8-OH-DPAT
T3 sequence (P19327 1-422): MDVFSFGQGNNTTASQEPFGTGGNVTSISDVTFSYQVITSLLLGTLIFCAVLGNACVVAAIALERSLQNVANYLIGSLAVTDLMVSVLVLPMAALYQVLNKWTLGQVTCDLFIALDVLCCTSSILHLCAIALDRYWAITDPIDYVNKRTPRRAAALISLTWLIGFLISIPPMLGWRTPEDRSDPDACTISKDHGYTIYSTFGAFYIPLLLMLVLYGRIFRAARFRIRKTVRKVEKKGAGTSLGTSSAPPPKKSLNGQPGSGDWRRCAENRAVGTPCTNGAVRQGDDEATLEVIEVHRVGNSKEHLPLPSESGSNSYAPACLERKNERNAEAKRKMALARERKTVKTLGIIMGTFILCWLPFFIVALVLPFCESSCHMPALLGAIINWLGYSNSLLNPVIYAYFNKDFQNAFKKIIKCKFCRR
The description is as above. The settings on record: rat hippocampal membranes, ligand [3H]-8-OH-DPAT; read-out: 5HT1A binding.
Description: as §1

Assay [7] deals with T4, adrenergic receptors.
T4 construct: other: rat cerebral cortical membranes, ligand [3H]prazosin
Description: in vitro binding profile to adrenergic receptors (Table 3). The settings on record: rat cerebral cortical membranes, ligand [3H]prazosin; read-out: α1 binding.
Description: as §1

The target of assay [8] is T5, adrenergic receptors.
T5 construct: other: rat cerebral cortical membranes, ligand [3H]yohimbine
Described as above. The note with it: rat cerebral cortical membranes, ligand [3H]yohimbine; read-out: α2 binding.
Description: as §1

The test system of assay [9] is apomorphine-induced climbing. Description: apomorphine-induced climbing test in mice. The format is in vivo, CD1 mice. The settings on record: Mus musculus, read-out: Climbing ED50 (mg/kg ip.). The protocol:
Anti-apomorphine effects were investigated in the climbing test in mice mediated through the mesolimbic and stereotypy test in rats mediated through the nigrostriatal system. Conventional antipsychotics antagonize both apomorphine-induced behaviours, while known atypical antipsychotics are weaker against apomorphine stereotypy.
The climbing test was carried out according to Protais et al. (Protais, P. et al. Psychopharmacologia, 1976, 50, 1.) Stereotyped behavior was induced in food deprived (for 16 hours) male CD1 mice weighing 20-25 g body by apomorphine HCl (SIGMA) in a s.c. dose of 2 mg/kg. Mice were placed individually into cylinders having 12 cm diameter and consisting of vertical bars of 2 mm diameter where apomorphine treated animals tended to adopt a vertical position in contrary to vehicle treated controls. Test substances were applied ip. 30 min before apomorphine.
10 and 20 min after apomorphine treatment the climbing behaviour was evaluated by scores of 0-2. 10 mice/group were used. The scores of the two readings were summed individually, meaned and compared to the control. The ED50 values were calculated by Litchfield-Wilcoxon's method (Litchfield Jr. J. T., Wilcoxon, F. J. Pharmacol. Exp. Ther. 1949, 96, 49,).

The test system of assay [10] is conditioned avoidance responses. Description: conditioned avoidance: pole jumping test in rats. The format is in vivo, Long-Evans rats. An excerpt: For measuring the antipsychotic potential in a non-perturbed dopamine system the pole jumping assay was used (Cook, L., Catania, A. C. Fed. Proc. 1964, 23, 818.)
This method is an active avoidance learning test. Long-Evans rats, weighing 250-450 g, were used in the experiments. Rats are placed in a box (25×25×25 cm) on a grid floor in the center of which there is a pole. After a latency period, light is turned on for a given time then the floor is electrified to deliver an unpleasant footshock. Rats may learn to avoid the shock by jumping up to grasp the pole. As soon as the rat jumps up the light and shock are turned off. Each light-on period lasted for 15 s, shock time for 30 s with an intertrial interval of 15 s. 30 such trials per day were repeated during the learning period until animals reach a minimum of 80% avoidance rate. During the experimental sessions 20 trials/day were run. Test substances were administered ip. in a volume of 0.25 ml/100 g body weight. Significances were calculated by Student's t test.

The mark [11] stands for this setting: mice, ip. 30 min before apomorphine 2 mg/kg s.c.

T2 sequence (P14842 whole entry): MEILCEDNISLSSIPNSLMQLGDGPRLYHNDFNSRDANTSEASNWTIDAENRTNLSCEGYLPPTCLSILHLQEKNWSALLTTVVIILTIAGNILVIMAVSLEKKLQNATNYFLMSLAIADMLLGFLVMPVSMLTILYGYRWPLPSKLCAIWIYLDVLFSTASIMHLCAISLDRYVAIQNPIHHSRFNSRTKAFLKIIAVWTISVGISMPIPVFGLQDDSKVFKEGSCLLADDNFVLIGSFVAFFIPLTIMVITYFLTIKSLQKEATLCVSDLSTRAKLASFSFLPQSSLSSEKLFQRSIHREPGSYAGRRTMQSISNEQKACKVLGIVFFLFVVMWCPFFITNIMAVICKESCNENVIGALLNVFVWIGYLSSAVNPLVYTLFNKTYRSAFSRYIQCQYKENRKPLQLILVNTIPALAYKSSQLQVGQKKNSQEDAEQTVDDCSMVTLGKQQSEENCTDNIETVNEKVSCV
Sequence of central dopaminergic receptors (Homo sapiens, UniProt P21728) (P21728 whole entry): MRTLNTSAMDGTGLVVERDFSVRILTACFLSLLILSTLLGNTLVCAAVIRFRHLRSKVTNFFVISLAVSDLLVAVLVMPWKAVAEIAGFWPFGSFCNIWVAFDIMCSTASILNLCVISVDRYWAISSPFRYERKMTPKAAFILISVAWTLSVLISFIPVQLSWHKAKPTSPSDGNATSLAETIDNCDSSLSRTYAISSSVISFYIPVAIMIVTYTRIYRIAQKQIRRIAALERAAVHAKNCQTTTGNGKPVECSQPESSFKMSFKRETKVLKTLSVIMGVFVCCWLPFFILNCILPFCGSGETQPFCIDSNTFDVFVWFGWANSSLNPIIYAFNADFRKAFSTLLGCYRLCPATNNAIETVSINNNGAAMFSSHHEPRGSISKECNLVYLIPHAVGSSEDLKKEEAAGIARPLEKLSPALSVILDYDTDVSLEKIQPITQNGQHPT
Sequence of central dopaminergic receptors (Rattus norvegicus, UniProt P61169) (P61169 whole entry): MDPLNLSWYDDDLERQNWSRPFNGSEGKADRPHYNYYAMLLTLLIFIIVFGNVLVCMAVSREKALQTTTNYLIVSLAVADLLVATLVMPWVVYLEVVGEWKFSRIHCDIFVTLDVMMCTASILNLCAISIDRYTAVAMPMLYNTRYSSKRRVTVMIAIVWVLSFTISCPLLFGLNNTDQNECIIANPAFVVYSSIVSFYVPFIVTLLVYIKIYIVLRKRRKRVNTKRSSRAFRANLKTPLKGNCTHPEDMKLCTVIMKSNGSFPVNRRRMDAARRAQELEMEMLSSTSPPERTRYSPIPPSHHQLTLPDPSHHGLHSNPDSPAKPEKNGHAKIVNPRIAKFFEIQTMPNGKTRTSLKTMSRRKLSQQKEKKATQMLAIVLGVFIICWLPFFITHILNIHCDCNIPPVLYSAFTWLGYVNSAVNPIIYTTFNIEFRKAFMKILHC

On to `COc1cc2c(cc1OC)C(c1ccc(N)c(C)c1)=NN(c1ncon1)[C@H](C)C2` [Example 104], for which the Ki in [1], in [2], in assay [3], in [4], in assay [5] and in assay [6] was above 10 µM in each case. Also, the Ki in [7] and in assay [8] was above 10 µM in each case. Further, the ED50 in assay [9] (setting [11]) was 7.7 mg/kg. For the same compound, in [10], the “MED (mg/kg ip), minimal effective dose (stat. sign.)” value (from here on “MED (mg/kg ip)”) is 15 mg/kg.
In the case of `COc1cc2c(cc1OC)C(c1ccc(N)c(C)c1)=NN(c1nncs1)[C@H](C)C2` [Example 110], the Ki in [1], in assay [2], in assay [3], in assay [4], in assay [5] and in assay [6] was above 10 µM each time. Also, the Ki in assay [7] and in assay [8] was above 10 µM throughout. In addition, the ED50 in [9] (setting [11]) worked out at 14.6 mg/kg. Besides, in [10], the “MED (mg/kg ip)” value is reported as 2 mg/kg.
With `CNC(=O)N1N=C(c2ccc(N)cc2)c2cc(OC)c(OC)cc2C[C@H]1C` [Example 121], the Ki in assay [1], in [2], in assay [3], in assay [4], in assay [5] and in [6] was above 10 µM throughout. Moreover, the Ki in [7] and in assay [8] was above 10 µM throughout. Besides, the ED50 in assay [9] was determined as 4.31 mg/kg. The “MED (mg/kg ip)” value in assay [10] amounted to 5 mg/kg.
On to `CNC(=O)N1N=C(c2ccc(N)c(C)c2)c2cc(OC)c(OC)cc2C[C@H]1C` [Example 123], for which the Ki in [1], in [2], in [3], in assay [4], in assay [5] and in assay [6] was above 10 µM in each case. Further, the Ki in assay [7] and in assay [8] was above 10 µM each time. Moreover, the ED50 in assay [9] stood at 9.2 mg/kg. Further, the “MED (mg/kg ip)” value in assay [10] is 2 mg/kg.
